In article PMC9657391, “A Food-Grade Method for Enhancing the Levels of Low Molecular Weight Proanthocyanidins with Potentially High Intestinal Bioavailability” (International Journal of Molecular Sciences, 2022):

Target: T1, COX-2 (cyclooxygenase 2) (Homo sapiens, UniProt P35354)
T1 construct: gene PTGS2
Experiment: biochemical

T1 sequence (P35354 18-604): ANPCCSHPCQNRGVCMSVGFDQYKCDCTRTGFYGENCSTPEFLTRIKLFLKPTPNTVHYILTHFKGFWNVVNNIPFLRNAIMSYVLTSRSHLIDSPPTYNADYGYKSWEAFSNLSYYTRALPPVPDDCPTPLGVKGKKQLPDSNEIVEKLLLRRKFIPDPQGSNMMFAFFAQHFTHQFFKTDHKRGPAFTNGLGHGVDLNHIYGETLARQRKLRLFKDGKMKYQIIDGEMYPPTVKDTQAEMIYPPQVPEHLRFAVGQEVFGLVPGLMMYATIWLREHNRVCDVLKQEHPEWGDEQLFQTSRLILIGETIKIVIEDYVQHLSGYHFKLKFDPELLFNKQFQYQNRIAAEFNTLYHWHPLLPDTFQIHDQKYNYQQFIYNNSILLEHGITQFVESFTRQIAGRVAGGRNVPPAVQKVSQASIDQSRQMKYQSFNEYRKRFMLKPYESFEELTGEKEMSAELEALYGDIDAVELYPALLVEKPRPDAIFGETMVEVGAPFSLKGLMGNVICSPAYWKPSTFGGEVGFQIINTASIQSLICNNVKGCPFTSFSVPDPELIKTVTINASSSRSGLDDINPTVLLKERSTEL

COc1ccc2cc([C@H](C)C(=O)O)ccc2c1 [Naproxen]
IC50: 13 µM
